These molecules were tested on HL60 cells (assay: Anti-cancer activity test, MTT, HL60 cells). Details: Homo sapiens, HL-60, culturing for 72 hours.
Format: cell-based
Protocol: Cell culture medium: Roswell medium RPMI-1640 (+L-glutamine) was added with 10% fetal bovine serum, with 100 units penicillin and 100 μg streptomycin per ml.
Cell culture conditions: 5% CO2, 95% humidity, cultured at 37° C. constant temperature.
2. Cell Inoculation, Drugs Dosing and Culture.
Logarithmic growth phase HL-60, human chronic myeloid leukemia cells (K562), human esophageal squamous cell carcinoma cells (KYSE510), human large cell lung cancer cells (H460) were inoculated into 96-well cell culture plates, 2×10^4 cells per well. Different concentrations of active compounds (dissolved in dimethyl sulfoxide (DMSO) stock solution) were added, so that the final concentration of DMSO was 0.2%, and the control group was DMSO. Each group was repeated three times.
After culturing for 72 hours, 20 µL of thiazolyl blue (MTT) (5 mg/ml, ready for use, dissolved in 1×PBS for cell culture) was added to each well, and incubated at 37° C. for 3 hours.
The 96-well cell culture plates were centrifuged at 1000 rpm for 10 minutes. The supernatant was discarded; 200 μL of DMSO was added to each well and the plate was shaken for 5 minutes.
The absorbance of each well was detected at 570 nm wavelength with a microplate reader, and the IC50 of the compounds was calculated.

Row | IC50 | Structure (SMILES)
1 | 100 to 500 nM | CC(C)C[C@H](NC(=O)[C@H](CC(C)C)NC(=O)Cn1c2ccccc2c2cnccc21)B1O[C@@H]2C[C@@H]3C[C@@H](C3(C)C)[C@]2(C)O1 [Compound A58]
2 | 100 to 500 nM | CC(C)C[C@H](NC(=O)[C@H](CC(=O)NC(c1ccccc1)(c1ccccc1)c1ccccc1)NC(=O)OCC1c2ccccc2-c2ccccc21)B(O)O [Compound A89]
3 | 100 to 500 nM | CC(C)C[C@H](NC(=O)[C@H](CC(=O)NC(c1ccccc1)(c1ccccc1)c1ccccc1)NC(=O)OC(C)(C)C)B1O[C@@H]2C[C@@H]3C[C@@H](C3(C)C)[C@]2(C)O1 [Compound A19]
4 | 100 to 500 nM | CC(C)C[C@H](NC(=O)[C@H](CC(C)C)NC(=O)Cn1c2ccccc2c2ccc(O)cc21)B(O)O [Compound A106]
5 | 100 to 500 nM | CC(C)C[C@H](NC(=O)[C@H](CC(C)C)NC(=O)Cn1c2ccccc2c2ccncc21)B(O)O [Compound A92]
6 | 2000 to 10000 nM | CC(C)C[C@H](NC(=O)[C@H](C)NC(=O)c1cccc2c1C(=O)N(C1CCC(=O)NC1=O)C2=O)B1O[C@@H]2C[C@@H]3C[C@@H](C3(C)C)[C@]2(C)O1 (some centres unmarked) [Compound A54]
7 | < 100 nM | CC(C)C[C@H](NC(=O)[C@H](Cc1c[nH]c2ccccc12)NC(=O)c1ccc2ccccc2c1)B1O[C@@H]2C[C@@H]3C[C@@H](C3(C)C)[C@]2(C)O1 [Compound A37]
8 | < 100 nM | CC(C)C[C@H](NC(=O)[C@H](Cc1c[nH]c2ccccc12)NC(=O)OCc1ccccc1)B1O[C@@H]2C[C@@H]3C[C@@H](C3(C)C)[C@]2(C)O1 [Compound A21]
9 | < 100 nM | CC(C)C[C@H](NC(=O)[C@H](Cc1c[nH]c2ccccc12)NC(=O)NC1CCCC1)B1O[C@@H]2C[C@@H]3C[C@@H](C3(C)C)[C@]2(C)O1 [Compound A44]
10 | < 100 nM | CC(C)C[C@H](NC(=O)[C@H](Cc1c[nH]c2ccccc12)NC(=O)NC1CCCC1)B(O)O [Compound A77]
11 | 100 to 500 nM | CC(C)C[C@H](NC(=O)[C@@H](C)NC(=O)OCC1c2ccccc2-c2ccccc21)B(O)O [Compound A85]
12 | 500 to 2000 nM | CC(C)C[C@H](NC(=O)[C@H](CC(C)C)NC(=O)CN(c1ccccc1)c1ccccc1)B(O)O [Compound A93]
13 | 100 to 500 nM | CC(C)C[C@H](NC(=O)[C@H](Cc1c[nH]c2ccccc12)NCc1ccccc1)B(O)O [Compound A79]
14 | 500 to 2000 nM | CC(C)C[C@H](NC(=O)[C@H](Cc1c[nH]c2ccccc12)NC(=O)c1ccncc1)B(O)O [Compound A72]
15 | < 100 nM | CC(C)C[C@H](NC(=O)[C@H](Cc1c[nH]c2ccccc12)NC(=O)OC1CCCC1)B(O)O [Compound A78]
16 | 100 to 500 nM | CC(C)C[C@H](NC(=O)[C@H](CC(C)C)NC(=O)Cn1c2ccccc2c2ncccc21)B(O)O [Compound A104]
17 | 100 to 500 nM | CC(C)C[C@H](NC(=O)[C@H](Cc1c[nH]c2ccccc12)NC(=O)c1ccc2ncccc2c1)B1O[C@@H]2C[C@@H]3C[C@@H](C3(C)C)[C@]2(C)O1 [Compound A35]
18 | < 100 nM | CC(C)C[C@H](NC(=O)CNC(=O)OCC1c2ccccc2-c2ccccc21)B(O)O [Compound A84]
19 | 100 to 500 nM | CC(C)C[C@H](NC(=O)[C@H](CC(C)C)NC(=O)Cn1c2ccccc2c2cnccc21)B(O)O [Compound A96]
20 | < 100 nM | COC(=O)CC[C@H](NC(=O)OCC1c2ccccc2-c2ccccc21)C(=O)N[C@@H](CC(C)C)B1O[C@@H]2C[C@@H]3C[C@@H](C3(C)C)[C@]2(C)O1 [Compound A14]
21 | < 100 nM | COC(=O)C[C@H](NC(=O)CC1c2ccccc2-c2ccccc21)C(=O)N[C@@H](CC(C)C)B(O)O [Compound A80]

Row | IC50 | Structure (SMILES)
22 | 100 to 500 nM | CC(C)C[C@H](NC(=O)[C@@H](NC(=O)OCC1c2ccccc2-c2ccccc21)[C@@H](C)O)B1O[C@@H]2C[C@@H]3C[C@@H](C3(C)C)[C@]2(C)O1 [Compound A11]
23 | 500 to 2000 nM | COc1ccc2c3ccccc3n(CC(=O)N[C@@H](CC(C)C)C(=O)N[C@@H](CC(C)C)B3O[C@@H]4C[C@@H]5C[C@@H](C5(C)C)[C@]4(C)O3)c2c1 [Compound A57]
24 | < 100 nM | CC(C)C[C@H](NC(=O)[C@H](Cc1c[nH]c2ccccc12)NC(=O)CC1CC1)B1O[C@@H]2C[C@@H]3C[C@@H](C3(C)C)[C@]2(C)O1 [Compound A31]
25 | 100 to 500 nM | CC(C)C[C@H](NC(=O)[C@H](CC(C)C)NC(=O)Cn1c2ccccc2c2ccc(Cl)cc21)B(O)O [Compound A99]
26 | 500 to 2000 nM | CC(C)C[C@H](NC(=O)[C@H](CC(C)C)NC(=O)Cn1c2ccc(Br)cc2c2cc(Br)ccc21)B1O[C@@H]2C[C@@H]3C[C@@H](C3(C)C)[C@]2(C)O1 [Compound A40]
27 | 500 to 2000 nM | CC(C)C[C@H](NC(=O)[C@H](CC(C)C)NC(=O)CN(c1ccccc1)c1ccccc1)B1O[C@@H]2C[C@@H]3C[C@@H](C3(C)C)[C@]2(C)O1 [Compound A55]
28 | 500 to 2000 nM | COc1ccc2c3ccccc3n(CC(=O)N[C@@H](CC(C)C)C(=O)N[C@@H](CC(C)C)B(O)O)c2c1 [Compound A95]
29 | < 100 nM | COC(=O)C[C@H](NC(=O)CC1c2ccccc2-c2ccccc21)C(=O)N[C@@H](CC(C)C)B1O[C@@H]2C[C@@H]3C[C@@H](C3(C)C)[C@]2(C)O1 [Compound A47]
30 | 100 to 500 nM | C[C@H](NC(=O)[C@H](CCCCNC(=O)OC(C)(C)C)NC(=O)OCC1c2ccccc2-c2ccccc21)B1O[C@@H]2C[C@@H]3C[C@@H](C3(C)C)[C@]2(C)O1 [Compound A23]
31 | < 100 nM | COc1ccc2cc(C(=O)N[C@@H](Cc3c[nH]c4ccccc34)C(=O)N[C@@H](CC(C)C)B3O[C@@H]4C[C@@H]5C[C@@H](C5(C)C)[C@]4(C)O3)ccc2c1 [Compound A52]
32 | < 100 nM | CC(C)C[C@H](NC(=O)[C@H](Cc1c[nH]c2ccccc12)NC(=O)c1ccc2ccccc2c1)B(O)O [Compound A76]
33 | < 100 nM | CC(C)C[C@H](NC(=O)[C@H](Cc1c[nH]c2ccccc12)NC(=O)OCc1ccccc1)B(O)O [Compound A66]
34 | 100 to 500 nM | CC(C)C[C@H](NC(=O)[C@@H](CC(=O)NC(c1ccccc1)(c1ccccc1)c1ccccc1)NC(=O)OCC1c2ccccc2-c2ccccc21)B1O[C@@H]2C[C@@H]3C[C@@H](C3(C)C)[C@]2(C)O1 [Compound A9]
35 | 2000 to 10000 nM | CC(C)C[C@H](NC(=O)OCC1c2ccccc2-c2ccccc21)C(=O)N1CCC[C@H]1B1O[C@@H]2C[C@@H]3C[C@@H](C3(C)C)[C@]2(C)O1 [Compound A49]
36 | 2000 to 10000 nM | CC(C)C[C@H](NC(=O)[C@H](C)NC(=O)c1ccc2c(c1)C(=O)N(C1CCC(=O)NC1=O)C2=O)B1O[C@@H]2C[C@@H]3C[C@@H](C3(C)C)[C@]2(C)O1 (some centres unmarked) [Compound A53]
37 | 2000 to 10000 nM | CC(C)C[C@H](NC(=O)[C@H](CC(C)C)N(C)C(=O)OCC1c2ccccc2-c2ccccc21)B(O)O [Compound A83]
38 | 500 to 2000 nM | CC(C)C[C@H](NC(=O)[C@H](CC(C)C)NC(=O)Cn1c2ccccc2c2cc(F)ccc21)B1O[C@@H]2C[C@@H]3C[C@@H](C3(C)C)[C@]2(C)O1 [Compound A60]
39 | 100 to 500 nM | CC(C)C[C@H](NC(=O)[C@H](Cc1c[nH]c2ccccc12)NC(=O)CC12CC3CC(CC(C3)C1)C2)B(O)O [Compound A68]
40 | < 100 nM | CC(C)C[C@H](NC(=O)[C@H](Cc1ccccc1)NC(=O)OCC1c2ccccc2-c2ccccc21)B1O[C@@H]2C[C@@H]3C[C@@H](C3(C)C)[C@]2(C)O1 [Compound A15]
41 | < 100 nM | CC(C)C[C@H](NC(=O)[C@H](Cc1c[nH]c2ccccc12)NC(=O)c1cnc2ccccc2c1)B(O)O [Compound A75]
